Source: patent publication US20250059187A1, “COVALENTLY BINDING INHIBITORS OF G12S, G12D AND/OR G12E MUTANTS OF K-RAS GTPASE” (The Regents of the University of California, priority 2021, published 2025)

Key:
Type in all cases: binding
K-Ras G12D = target: T1, K-Ras G12D (Homo sapiens, UniProt P01116, G12D); test: Covalent modification of test protein after incubation with compound; conditions: 24-h incubation with 100 μM compound at 23° C. at pH 7.5
T1 construct: human K-Ras (G12D, aa 1-169); 6xHis tag + TEV cleavage site (N, cleaved yes); made in house; host or cells: E. coli BL21(DE3)

K-Ras G12E = target: T2, K-Ras G12E (Homo sapiens, UniProt P01116, G12E); test: as above; conditions: 24-h incubation with 100 μM compound at 23° C. at pH 7.5
T2 construct: human K-Ras (G12E, aa 1-169); 6xHis tag + TEV cleavage site (N, cleaved yes); made in house; host or cells: E. coli BL21(DE3)

K-Ras(G12S) = K-Ras(G12S) (Homo sapiens, UniProt P01116, G12S); test: Covalent modification of recombinant K-Ras(G12S) by whole-protein mass spectrometry; set-up: human K-Ras (G12S, aa 1-169); 6xHis tag + TEV cleavage site (N, cleaved yes); made in house; host or cells: E. coli BL21(DE3); conditions: 23° C.
Procedure, shortened: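 Recombinant K-Ras diluted to 400 nM or 1 μM in 20 mM HEPES pH 7.5, 150 mM NaCl, 1 mM MgCl2 and incubated with compound added from 100× DMSO stock. Modification extent measured by electrospray whole-protein mass spectrometry; kinetics used 1:1 mixing with 400 nM protein and injection time stamps for elapsed time.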

wild type K-Ras = target: T3, wild type K-Ras (Homo sapiens, UniProt P01116); test: Covalent modification of recombinant wild-type K-Ras by whole-protein mass spectrometry; conditions: 24-h incubation, 100 μM compound, 23° C., pH 7.5
T3 construct: human K-Ras (wildtype, aa 1-169); 6xHis tag + TEV cleavage site (N, cleaved yes); made in house; host or cells: E. coli BL21(DE3)

SMILES: O=C1O[C@H]2CN(c3nc(OCC45CCCN4CCC5)nc4c(F)c(-c5cccc6cccc(Cl)c56)ncc34)CC[C@@H]12 [5′]
- % covalent modification of K-Ras G12D (K-Ras G12D): 0%
- % covalent modification of K-Ras G12E (K-Ras G12E): 0%
- covalent reaction with K-Ras(G12S)·GDP (K-Ras(G12S); 10 μM compound): enhanced reaction
- time to 100% modification of K-Ras(G12S)·GDP (K-Ras(G12S); 10 μM): < 10 min
- % covalent modification of K-Ras G12S (K-Ras(G12S); 24-h incubation, 100 μM compound, pH 7.5): 100%
- % covalent modification of wild type K-Ras (wild type K-Ras): 0%
